Laboratory results: ChEMBL document CHEMBL1128062, “Tricyclic -lactams: total synthesis and antibacterial activity of 5- and 5-methoxy-tribactams” (1995)

Tests used:
Type in all cases: functional
Enterobacter cloacae = assay: Antibacterial activity against permeable beta-lactamase producing Enterobacter cloacae 3647
Clostridium perfringens = assay: Antibacterial activity against Clostridium perfringens 615E
Bacteroides fragilis = assay: Antibacterial activity against Bacteroides fragilis 2017E
Haemophilus influenzae = assay: Antibacterial activity against Haemophilus influenzae 49247
Staphylococcus aureus [1] = assay: Antibacterial activity against methicillin resistant Staphylococcus aureus 1131
Staphylococcus aureus [2] = assay: Antibacterial activity against beta-lactamase producing Staphylococcus aureus 853E
Pseudomonas aeruginosa [3] = assay: Antibacterial activity against Pseudomonas aeruginosa 1911E
Escherichia coli [4] = assay: Antibacterial activity against permeable Escherichia coli DC2
Pseudomonas aeruginosa [5] = assay: Antibacterial activity against Pseudomonas aeruginosa 2032E WT
Staphylococcus aureus [6] = assay: Antibacterial activity against methicillin resistant Staphylococcus aureus COL
Escherichia coli [7] = assay: Antibacterial activity against wild Escherichia coli DC0
Staphylococcus aureus [8] = assay: Antibacterial activity against penicillin sensitive Staphylococcus aureus 663E
Proteus mirabilis = assay: Antibacterial activity against permeable beta-lactamase producing Proteus mirabilis 355
Pseudomonas aeruginosa [9] = assay: Antibacterial activity against permeable mutant Pseudomonas aeruginosa 2033E
Escherichia coli [10] = assay: Antibacterial activity against permeable beta-lactamase producing Escherichia coli DC2 TEML
Enterococcus faecalis = assay: Antibacterial activity against Enterococcus faecalis 850

| SMILES | MIC (Enterobacter cloacae) [µg/mL] | MIC (Clostridium perfringens) [µg/mL] | MIC (Bacteroides fragilis) [µg/mL] | MIC (Haemophilus influenzae) [µg/mL] | MIC (Staphylococcus aureus [1]) [µg/mL] | MIC (Staphylococcus aureus [2]) [µg/mL] | MIC (Pseudomonas aeruginosa [3]) [µg/mL] | MIC (Escherichia coli [4]) [µg/mL] | MIC (Pseudomonas aeruginosa [5]) [µg/mL] | MIC (Staphylococcus aureus [6]) [µg/mL] | MIC (Escherichia coli [7]) [µg/mL] | MIC (Staphylococcus aureus [8]) [µg/mL] | MIC (Proteus mirabilis) [µg/mL] | MIC (Pseudomonas aeruginosa [9]) [µg/mL] | MIC (Escherichia coli [10]) [µg/mL] | MIC (Enterococcus faecalis) [µg/mL] |
| --- | --- | --- | --- | --- | --- | --- | --- | --- | --- | --- | --- | --- | --- | --- | --- | --- |
| CC1(C)CCC2(C)CCC(C)(C)NC2=N1.CO[C@H]1CC[C@H]2C(=C(C(=O)O)N3C(=O)[C@H]([C@@H](C)O)[C@@H]23)C1 | 1 | 0.5 | 1 | 0.5 | 32 | 0.5 | > 32 | 1 | > 32 | > 32 | 1 | 0.25 | 4 | 1 | 1 | 4 |
| CC1(C)CCC2(C)CCC(C)(C)NC2=N1.CO[C@@H]1CC[C@H]2C(=C(C(=O)O)N3C(=O)[C@H]([C@@H](C)O)[C@@H]23)C1 | 16 | 8 | 32 | 16 | > 32 | 1 | > 32 | 0.5 | > 32 | > 32 | 16 | 1 | 32 | 16 | 1 | > 32 |
| C[C@@H](O)[C@H]1C(=O)N2C(C(=O)O)=C(SCCNC=N)C[C@H]12.O [IMIPENEM] | 2 | 0.06 | 0.13 | 1 | 4 | 0.13 | 4 | 0.5 | 4 | > 32 | 0.5 | 0.13 | 1 | 0.5 | 0.5 | 1 |
